Results as given in PubChem BioAssay AID743284 (The Scripps Research Institute Molecular Screening Center, 2014).
Calls of active or inactive are those of the source.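 The calls were made as follows: active = compounds whose fitted concentration for half-maximal reporter inhibition is 10 µM or lower; inactive = the rest.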

The molecules below were run against COUP transcription factor 2 (Homo sapiens) (UniProt P24468) (assay: COUP-TFII reporter suppression IC50 – cell-based, luciferase reporter, HEK293, powder samples, round 000, late-stage follow-up (AID 743284)). Conditions: HEK293 NGFI-A luciferase reporter, luminescence.
COUP transcription factor 2 (Homo sapiens), sequence (P24468 whole entry, looked up): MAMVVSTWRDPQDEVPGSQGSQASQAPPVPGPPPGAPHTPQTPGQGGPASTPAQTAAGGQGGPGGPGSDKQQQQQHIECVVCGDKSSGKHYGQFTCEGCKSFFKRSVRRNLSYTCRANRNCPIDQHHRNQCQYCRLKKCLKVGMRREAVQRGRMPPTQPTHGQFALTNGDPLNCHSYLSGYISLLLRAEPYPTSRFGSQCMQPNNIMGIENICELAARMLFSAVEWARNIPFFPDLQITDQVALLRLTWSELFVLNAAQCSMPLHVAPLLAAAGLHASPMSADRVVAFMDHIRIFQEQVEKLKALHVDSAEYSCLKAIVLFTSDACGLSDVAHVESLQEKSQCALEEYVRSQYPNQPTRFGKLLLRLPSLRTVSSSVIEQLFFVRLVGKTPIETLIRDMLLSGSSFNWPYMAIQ

Which IC50 does the source give for `Cc1sc2ncnc(NCC3COc4ccccc4O3)c2c1C` (stereo not drawn) here?
Its IC50 is 3.27 µM.

How did the IC50 turn out when `Cc1nn(C)c(C)c1CN(C)S(=O)(=O)c1ccc2ccccc2c1` was run?
The IC50 was 3.27 µM.

For `COc1ccc(CCNc2ncnc3sccc23)cc1OC`, which IC50 is on record?
The IC50 was 1.79 µM.

For `COc1ccc(NS(=O)(=O)c2ccc(-c3coc(C)n3)cc2)cc1OC`, which IC50 is on record?
The IC50 was 5.73 µM.

For `CC(Nc1ncnc2ccccc12)c1ccccc1` (stereo not drawn), which IC50 is on record?
Its IC50 is 4.97 µM.

Which IC50 does the source give for `Cc1cc(-n2nc3ccccc3n2)c2oc(SCC(=O)NC(C)(C)C)nc2c1` here?
Its IC50 is “inactive”.

Which IC50 does the source give for `COc1ccc(OC)c(CCNC(=O)Cn2nc(C)c3c(C)n(-c4ccc(C)cc4)nc3c2=O)c1` here?
Its IC50 is 3.14 µM.

Which IC50 does the source give for `COc1ccc(CN(C)c2ccc(S(=O)(=O)N3CCN(C)CC3)cc2[N+](=O)[O-])cc1OC` here?
The IC50 was 2.76 µM.

How did the IC50 turn out when `Cn1nccc1C(=O)NC1CCCc2c1cnn2-c1ccc(C(C)(C)C)cc1` (stereo not drawn) was run?
The IC50 was 1.38 µM.

Which IC50 does the source give for `CCC1CCCCN1C(=O)c1cc(COc2ccc3ncccc3c2)on1` (stereo not drawn) here?
The IC50 was 3.33 µM.

For `CC(=O)Nc1ccccc1OCC(=O)c1cc(C)n(Cc2cccs2)c1C`, which IC50 is on record?
The IC50 was 0.586 µM.

`COc1ccc(CCNc2ncnc3sc(C)cc23)cc1OC` was tested. Which IC50 did it give?
Its IC50 is 1.49 µM.

For `O=C(Nc1ccncc1)c1ccc(Cl)c(S(=O)(=O)N2CCc3ccccc32)c1`, which IC50 is on record?
Its IC50 is 3.86 µM.

`CN(CC1CCCO1)S(=O)(=O)c1ccc(C(=O)Nc2nc3cc4c(cc3s2)OCO4)cc1` (stereo not drawn) was tested. Which IC50 did it give?
The IC50 was 1.99 µM.

Which IC50 does the source give for `COc1ccc(C2=Nn3c([n+](C)c4ccccc43)SC2)cc1` here?
The IC50 was 4.8 µM.

With `CCOc1cc(S(=O)(=O)NCc2ccncc2)ccc1Cl` as the molecule, how does the IC50 read?
Its IC50 is 2.06 µM.

For `Cc1ccc(OCCN2CCN(c3ncnc4sc(C)c(C)c34)CC2)cc1`, which IC50 is on record?
The IC50 was 3.43 µM.

`CC1Cc2cc(-c3csc(NC(=O)Cc4cccs4)n3)ccc2N1S(C)(=O)=O` (stereo not drawn) was tested. Which IC50 did it give?
The IC50 was 2.3 µM.

Which IC50 does the source give for `CCOC(=O)N1CCN(C(=O)CSCC(=O)Nc2nc(-c3ccc(-c4ccccc4)cc3)cs2)CC1` here?
The IC50 was 2.91 µM.

For `CCOC(=O)C1CCCN(S(=O)(=O)c2ccc(S(=O)(=O)N(CC)CC)cc2)C1` (stereo not drawn), which IC50 is on record?
The IC50 was 3.02 µM.

Which IC50 does the source give for `COc1ccc(NS(=O)(=O)c2cccc(NC(=O)c3ccc(Cl)nc3)c2)cc1` here?
Its IC50 is 3.46 µM.

With `Cc1cc(C)c(S(=O)(=O)NCc2ccncc2)c(C)c1` as the molecule, how does the IC50 read?
Its IC50 is 5.42 µM.

Which IC50 does the source give for `Cc1cc(-n2c(C)cc(C(=O)CSc3ncnc4ccccc34)c2C)no1` here?
Its IC50 is 6.99 µM.

For `Cc1sc2ncnc(NCCc3ccc(S(N)(=O)=O)cc3)c2c1C`, which IC50 is on record?
Its IC50 is 5.74 µM.

How did the IC50 turn out when `Cc1oc(-c2ccc(Cl)cc2)nc1CS(=O)CC(=O)NCCCN1CCN(Cc2ccccc2)CC1` (stereo not drawn) was run?
Its IC50 is 6.24 µM.

Which IC50 does the source give for `Cc1ccc(S(=O)(=O)CC2CSc3nc4ccccc4n32)cc1` (stereo not drawn) here?
The IC50 was 4.16 µM.

Which IC50 does the source give for `CCN(CC)S(=O)(=O)c1cccc(NC(=O)CNc2cccc(S(=O)(=O)N3CCCC3)c2)c1` here?
The IC50 was 3.99 µM.

With `O=S(=O)(NCC1CCCO1)c1ccc(-c2ccc(S(=O)(=O)NCC3CCCO3)cc2)cc1` (stereo not drawn) as the molecule, how does the IC50 read?
Its IC50 is 1.87 µM.
